Assay results from ChEMBL document CHEMBL1909046, “DrugMatrix in vitro pharmacology data”.

Columns and labels:
[1] = biological target: Vascular endothelial growth factor receptor 1 (Homo sapiens, UniProt P17948); experiment: biochemical; format: cell-based, HUVEC; also: in other assays of this panel Not Active means under 50% inhibition at 10 µM
[2] = biological target: Tyrosine-protein kinase Fyn (Homo sapiens, UniProt P06241); experiment: biochemical; format: cell-based, Insect cells;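 also: enzymatic inhibition of Fyn kinase activity measured with Poly(Glu:Tyr) as the phosphorylation substrate; in other assays of this panel Not Active means under 50% inhibition at 10 µM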
Chain of Tyrosine-protein kinase Fyn (P06241 whole entry): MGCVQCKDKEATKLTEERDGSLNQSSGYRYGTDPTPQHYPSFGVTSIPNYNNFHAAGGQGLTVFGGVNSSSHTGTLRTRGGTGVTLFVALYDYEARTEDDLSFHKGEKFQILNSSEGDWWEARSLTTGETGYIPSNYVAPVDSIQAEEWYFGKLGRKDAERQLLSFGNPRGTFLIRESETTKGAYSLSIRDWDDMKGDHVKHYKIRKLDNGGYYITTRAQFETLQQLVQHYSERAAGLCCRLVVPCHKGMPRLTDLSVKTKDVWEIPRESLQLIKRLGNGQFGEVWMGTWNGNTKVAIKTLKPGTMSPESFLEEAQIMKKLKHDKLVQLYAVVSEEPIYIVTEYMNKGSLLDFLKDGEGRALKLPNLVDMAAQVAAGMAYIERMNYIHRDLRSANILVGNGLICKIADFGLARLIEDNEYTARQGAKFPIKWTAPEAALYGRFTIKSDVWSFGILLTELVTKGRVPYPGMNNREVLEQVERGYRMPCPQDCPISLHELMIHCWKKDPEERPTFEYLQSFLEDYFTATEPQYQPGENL

[3] = DRUGMATRIX: Glutamate, NMDA, Agonism radioligand binding (ligand: [3H] CGP-39653); format: cell membranes, Rattus norvegicus, Wistar, Cerebral cortex, Membrane; conditions: Not Active = under 50% inhibition at 10 µM
Cathepsin G = biological target: T1, Cathepsin G (Homo sapiens, UniProt P08311); format: tissue-based; conditions: neutrophil;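 also: inhibition of Cathepsin G enzyme activity, tested on an AMC-conjugated peptide substrate; in other assays of this panel Not Active means under 50% inhibition at 10 µM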
T1 sequence (P08311 whole entry): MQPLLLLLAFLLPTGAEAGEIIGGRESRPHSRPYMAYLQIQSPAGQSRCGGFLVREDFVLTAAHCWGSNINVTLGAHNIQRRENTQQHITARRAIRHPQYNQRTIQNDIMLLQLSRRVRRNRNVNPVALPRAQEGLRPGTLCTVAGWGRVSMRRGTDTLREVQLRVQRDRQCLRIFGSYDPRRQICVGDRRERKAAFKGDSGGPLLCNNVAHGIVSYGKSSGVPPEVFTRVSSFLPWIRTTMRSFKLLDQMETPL

[4] = biological target: T2, Alpha-1D adrenergic receptor (Homo sapiens, UniProt P25100); format: cell membranes, HEK293, Membrane; conditions: hek293; also: in other assays of this panel Not Active means under 50% inhibition at 10 µM
T2 sequence (P25100 whole entry): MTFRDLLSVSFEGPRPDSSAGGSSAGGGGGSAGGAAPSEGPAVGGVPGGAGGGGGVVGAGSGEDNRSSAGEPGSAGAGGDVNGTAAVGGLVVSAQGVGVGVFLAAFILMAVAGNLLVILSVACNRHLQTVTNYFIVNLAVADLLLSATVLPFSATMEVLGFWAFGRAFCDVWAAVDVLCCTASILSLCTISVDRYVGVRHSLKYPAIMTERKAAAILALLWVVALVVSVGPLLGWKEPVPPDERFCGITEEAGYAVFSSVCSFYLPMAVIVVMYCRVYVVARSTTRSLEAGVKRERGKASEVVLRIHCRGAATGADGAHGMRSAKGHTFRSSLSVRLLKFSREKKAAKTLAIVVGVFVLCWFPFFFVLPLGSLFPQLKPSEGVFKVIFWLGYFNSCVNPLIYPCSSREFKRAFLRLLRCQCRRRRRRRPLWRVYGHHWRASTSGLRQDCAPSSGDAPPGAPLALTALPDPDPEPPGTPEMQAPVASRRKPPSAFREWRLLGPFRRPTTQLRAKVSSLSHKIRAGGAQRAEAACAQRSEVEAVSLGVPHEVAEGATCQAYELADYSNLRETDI

Cytochrome P450 2C19 = Cytochrome P450 2C19 (Homo sapiens, UniProt P33261); conditions: bti-tn-5b1-4; also: in other assays of this panel Not Active means under 50% inhibition at 10 µM
Chain of Cytochrome P450 2C19 (P33261 whole entry): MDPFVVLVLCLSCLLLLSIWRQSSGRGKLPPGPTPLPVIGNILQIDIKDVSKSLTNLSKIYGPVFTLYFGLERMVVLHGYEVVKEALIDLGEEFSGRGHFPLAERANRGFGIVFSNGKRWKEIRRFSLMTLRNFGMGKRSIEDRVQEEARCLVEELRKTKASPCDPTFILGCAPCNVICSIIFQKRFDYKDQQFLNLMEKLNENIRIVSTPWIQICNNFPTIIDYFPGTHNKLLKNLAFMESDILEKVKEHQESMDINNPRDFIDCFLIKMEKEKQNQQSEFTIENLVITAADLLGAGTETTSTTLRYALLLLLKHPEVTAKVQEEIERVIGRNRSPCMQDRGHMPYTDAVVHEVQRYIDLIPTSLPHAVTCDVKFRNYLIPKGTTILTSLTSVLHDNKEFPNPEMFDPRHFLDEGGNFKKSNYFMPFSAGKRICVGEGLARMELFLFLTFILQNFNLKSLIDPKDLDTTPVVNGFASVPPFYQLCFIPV

Chain of Vascular endothelial growth factor receptor 1 (P17948 whole entry): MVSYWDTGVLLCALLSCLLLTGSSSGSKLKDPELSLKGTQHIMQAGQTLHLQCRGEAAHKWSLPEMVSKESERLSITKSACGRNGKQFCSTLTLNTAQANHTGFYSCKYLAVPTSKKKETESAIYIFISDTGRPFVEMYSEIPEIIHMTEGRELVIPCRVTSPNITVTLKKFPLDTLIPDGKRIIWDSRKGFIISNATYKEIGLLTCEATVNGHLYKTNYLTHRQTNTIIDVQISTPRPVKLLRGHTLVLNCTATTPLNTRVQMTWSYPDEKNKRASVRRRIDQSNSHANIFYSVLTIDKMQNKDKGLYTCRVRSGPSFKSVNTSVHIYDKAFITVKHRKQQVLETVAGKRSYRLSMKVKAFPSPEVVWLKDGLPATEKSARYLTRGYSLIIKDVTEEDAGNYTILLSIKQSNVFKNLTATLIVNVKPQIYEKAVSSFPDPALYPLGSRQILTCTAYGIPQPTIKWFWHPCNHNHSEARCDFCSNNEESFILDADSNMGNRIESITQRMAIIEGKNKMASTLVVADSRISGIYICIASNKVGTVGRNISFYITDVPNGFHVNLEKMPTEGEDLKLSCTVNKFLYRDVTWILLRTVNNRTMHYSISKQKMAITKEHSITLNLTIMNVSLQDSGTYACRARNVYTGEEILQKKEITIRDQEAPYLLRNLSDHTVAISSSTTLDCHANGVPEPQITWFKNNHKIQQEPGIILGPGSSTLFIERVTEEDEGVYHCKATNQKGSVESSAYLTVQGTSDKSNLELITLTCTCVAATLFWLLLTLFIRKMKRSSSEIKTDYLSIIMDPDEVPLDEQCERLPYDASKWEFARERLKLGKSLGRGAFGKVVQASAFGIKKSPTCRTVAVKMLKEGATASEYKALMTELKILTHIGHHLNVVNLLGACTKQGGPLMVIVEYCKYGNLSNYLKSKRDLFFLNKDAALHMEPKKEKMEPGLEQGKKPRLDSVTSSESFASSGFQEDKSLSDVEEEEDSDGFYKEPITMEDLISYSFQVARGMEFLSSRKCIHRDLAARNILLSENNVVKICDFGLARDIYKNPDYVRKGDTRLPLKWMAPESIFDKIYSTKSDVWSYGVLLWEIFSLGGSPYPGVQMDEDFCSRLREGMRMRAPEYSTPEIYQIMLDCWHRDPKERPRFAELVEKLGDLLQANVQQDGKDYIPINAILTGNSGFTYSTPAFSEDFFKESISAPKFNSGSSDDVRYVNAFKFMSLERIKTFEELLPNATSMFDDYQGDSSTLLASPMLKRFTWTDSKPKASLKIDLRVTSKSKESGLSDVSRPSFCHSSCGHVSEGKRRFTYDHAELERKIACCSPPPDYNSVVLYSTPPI

Cc1nnc2n1-c1ccc(Cl)cc1C(c1ccccc1)=NC2 [ALPRAZOLAM]
IC50 ([1]; huvec): Not Active | IC50 ([2]; insect cells): Not Active | IC50 [3]: Not Active | Ki [3]: Not Active | IC50 (Cathepsin G): Not Active | IC50 [4]: Not Active | IC50 (Cytochrome P450 2C19): Not Active | Ki (Cytochrome P450 2C19): Not Active

COC(=O)CCc1ccc(OCC(O)CNC(C)C)cc1 (configuration not stated) [ESMOLOL]
IC50 ([1]; huvec): Not Active | IC50 ([2]; insect cells): Not Active | IC50 [3]: Not Active | Ki [3]: Not Active | IC50 (Cathepsin G): Not Active | IC50 [4]: Not Active | IC50 (Cytochrome P450 2C19): Not Active | Ki (Cytochrome P450 2C19): Not Active

COc1ccc2cc3[n+](cc2c1OC)CCc1cc2c(cc1-3)OCO2.[Cl-] [BERBERINE CHLORIDE]
IC50 ([1]; huvec): Not Active | IC50 ([2]; insect cells): Not Active | IC50 [3]: Not Active | Ki [3]: Not Active | IC50 (Cathepsin G): Not Active | IC50 [4]: Not Active | IC50 (Cytochrome P450 2C19): Not Active | Ki (Cytochrome P450 2C19): Not Active

NC(=O)C[S+]([O-])C(c1ccccc1)c1ccccc1 (configuration not stated) [MODAFINIL]
IC50 ([1]; huvec): Not Active | IC50 ([2]; insect cells): Not Active | IC50 [3]: Not Active | Ki [3]: Not Active | IC50 (Cathepsin G): Not Active | IC50 [4]: Not Active | IC50 (Cytochrome P450 2C19): Not Active | Ki (Cytochrome P450 2C19): Not Active

CC(C)=CCC/C(C)=C/CO [GERANIOL]
IC50 ([1]; huvec): Not Active | IC50 ([2]; insect cells): Not Active | IC50 [3]: Not Active | Ki [3]: Not Active | IC50 (Cathepsin G): Not Active | IC50 [4]: Not Active

NCCCC(O)(P(=O)(O)O)P(=O)(O)O [ALENDRONIC ACID]
IC50 ([1]; huvec): Not Active | IC50 ([2]; insect cells): Not Active | IC50 [3]: Not Active | Ki [3]: Not Active | IC50 (Cathepsin G): Not Active | IC50 [4]: Not Active

C[C@@H]1CC[C@@]2(OC1)O[C@H]1[C@@H](O)[C@H]3[C@@H]4CC[C@H]5C[C@@H](O[C@@H]6O[C@H](CO)[C@H](O[C@@H]7O[C@H](CO)C(O)[C@H](O[C@@H]8OC[C@@H](O)[C@H](O)[C@H]8O)[C@H]7O[C@@H]7O[C@H](CO)[C@H](O)[C@H](O[C@@H]8O[C@H](CO)[C@@H](O)[C@H](O)[C@H]8O)[C@H]7O)[C@H](O)[C@H]6O)[C@H](O)C[C@]5(C)[C@H]4CC[C@]3(C)[C@H]1[C@@H]2C (some centres not stated) [DIGITONIN]
IC50 ([1]; read-out: IC50): 3.86 µM | Ki ([1]; read-out: Ki): 1 µM | IC50 ([2]; insect cells): Not Active | IC50 [3]: Not Active | Ki [3]: Not Active | IC50 (Cathepsin G): Not Active | IC50 [4]: Not Active | IC50 (Cytochrome P450 2C19): Not Active | Ki (Cytochrome P450 2C19): Not Active

O=C1CN=C(c2ccccc2Cl)c2cc([N+](=O)[O-])ccc2N1 [CLONAZEPAM]
IC50 ([1]; huvec): Not Active | IC50 ([2]; insect cells): Not Active | IC50 [3]: Not Active | Ki [3]: Not Active | IC50 (Cathepsin G): Not Active | IC50 [4]: Not Active | IC50 (Cytochrome P450 2C19): Not Active | Ki (Cytochrome P450 2C19): Not Active

AURANOFIN
IC50 ([1]; huvec): Not Active | Ki ([1]; huvec): Not Active | IC50 ([2]; insect cells, read-out: IC50): 1.2 µM | IC50 [3]: Not Active | Ki [3]: Not Active | IC50 (Cathepsin G): Not Active | Ki (Cathepsin G): Not Active | IC50 [4]: Not Active | Ki [4]: Not Active | IC50 (Cytochrome P450 2C19): Not Active | Ki (Cytochrome P450 2C19): Not Active

COC(=O)Nc1nc2ccc(C(=O)c3cccs3)cc2[nH]1 [NOCODAZOLE]
IC50 ([1]; huvec): Not Active | IC50 ([2]; insect cells): Not Active | IC50 [3]: Not Active | Ki [3]: Not Active | IC50 (Cathepsin G): Not Active | IC50 [4]: Not Active | IC50 (Cytochrome P450 2C19): Not Active | Ki (Cytochrome P450 2C19): Not Active

C[C@H]1O[C@@H](n2cc(F)c(=O)[nH]c2=O)[C@H](O)[C@@H]1O [DOXIFLURIDINE]
IC50 ([1]; huvec): Not Active | IC50 ([2]; insect cells): Not Active | IC50 [3]: Not Active | Ki [3]: Not Active | IC50 (Cathepsin G): Not Active | IC50 [4]: Not Active | IC50 (Cytochrome P450 2C19): Not Active | Ki (Cytochrome P450 2C19): Not Active

CC(C)(C)NC(=O)[C@H]1CC[C@H]2[C@@H]3CC[C@H]4NC(=O)C=C[C@]4(C)[C@H]3CC[C@]12C [FINASTERIDE]
IC50 ([1]; huvec): Not Active | IC50 ([2]; insect cells): Not Active | IC50 [3]: Not Active | Ki [3]: Not Active | IC50 (Cathepsin G): Not Active | IC50 [4]: Not Active

CC(=O)[C@@]1(O)CC[C@H]2[C@@H]3CCC4=CC(=O)CC[C@]4(C)[C@H]3CC[C@@]21C [HYDROXYPROGESTERONE]
IC50 ([1]; huvec): Not Active | IC50 ([2]; insect cells): Not Active | IC50 [3]: Not Active | Ki [3]: Not Active | IC50 (Cathepsin G): Not Active | IC50 [4]: Not Active

Oc1c(Cl)cc(Cl)c(Cl)c1Cc1c(O)c(Cl)cc(Cl)c1Cl [HEXACHLOROPHENE]
IC50 ([1]; huvec): Not Active | IC50 ([2]; read-out: IC50): 3.48 µM | IC50 [3]: Not Active | Ki [3]: Not Active | IC50 (Cathepsin G): Not Active | IC50 [4]: Not Active

COC1=C(OC)C(=O)C(CCCCCCCCCCO)=C(C)C1=O [IDEBENONE]
IC50 ([1]; huvec): Not Active | IC50 ([2]; insect cells): Not Active | IC50 [3]: Not Active | Ki [3]: Not Active | IC50 (Cathepsin G): Not Active | IC50 [4]: Not Active
